Measurements from the NIST ThermoML archive (doi:10.1021/je3001969).

Test: xn = mol fraction of the nth substance listed
Conditions: Liquid, Pycnometric method

[C-]#[O+] [carbon monoxide] + CCC(=O)O
Conditions | mass density [kg/m3]
293.2 K, x1 = 0.0156 | 988.2
293.2 K, x1 = 0.0211 | 983.1
293.2 K, x1 = 0.0237 | 978.3
293.2 K, x1 = 0.0298 | 970.5
293.2 K, x1 = 0.0353 | 962.3
293.2 K, x1 = 0.0418 | 950.4
293.2 K, x1 = 0.0487 | 937.2
293.2 K, x1 = 0.0596 | 919.7
313.2 K, x1 = 0.0121 | 985.4
313.2 K, x1 = 0.0146 | 978.3
313.2 K, x1 = 0.0202 | 972.6
313.2 K, x1 = 0.0269 | 965.1
313.2 K, x1 = 0.0311 | 957.4
313.2 K, x1 = 0.0387 | 945.2
313.2 K, x1 = 0.0465 | 931.2
313.2 K, x1 = 0.0557 | 913.3
333.2 K, x1 = 0.0105 | 977.4
333.2 K, x1 = 0.0125 | 971.2
333.2 K, x1 = 0.0179 | 964.9
333.2 K, x1 = 0.024 | 958
333.2 K, x1 = 0.028 | 949.8
333.2 K, x1 = 0.0341 | 938.5
333.2 K, x1 = 0.0418 | 925.3
333.2 K, x1 = 0.0508 | 907.7
353.2 K, x1 = 0.0082 | 968.4
353.2 K, x1 = 0.0108 | 963
353.2 K, x1 = 0.0165 | 956.7
353.2 K, x1 = 0.0225 | 952.3
353.2 K, x1 = 0.0267 | 944.7
353.2 K, x1 = 0.0331 | 933.4
353.2 K, x1 = 0.0407 | 919.6
353.2 K, x1 = 0.0478 | 902.3

[C-]#[O+] [carbon monoxide] + COC=O
Conditions | mass density [kg/m3]
293.2 K, x1 = 0.0184 | 976.3
293.2 K, x1 = 0.0214 | 976.1
293.2 K, x1 = 0.0274 | 974.9
293.2 K, x1 = 0.0342 | 971.3
293.2 K, x1 = 0.0445 | 964.7
293.2 K, x1 = 0.054 | 954.7
293.2 K, x1 = 0.0735 | 932.5
293.2 K, x1 = 0.0914 | 911.2
313.2 K, x1 = 0.012 | 972.1
313.2 K, x1 = 0.0196 | 971.5
313.2 K, x1 = 0.0259 | 969.3
313.2 K, x1 = 0.0358 | 962.4
313.2 K, x1 = 0.0473 | 950.8
313.2 K, x1 = 0.0598 | 937.3
313.2 K, x1 = 0.0691 | 924.7
313.2 K, x1 = 0.0812 | 904.3
333.2 K, x1 = 0.0101 | 969.2
333.2 K, x1 = 0.0136 | 968.7
333.2 K, x1 = 0.0204 | 967.6
333.2 K, x1 = 0.0286 | 960.7
333.2 K, x1 = 0.0412 | 947.8
333.2 K, x1 = 0.0496 | 937.5
333.2 K, x1 = 0.0613 | 923
333.2 K, x1 = 0.0744 | 901.3
353.2 K, x1 = 0.0063 | 964.6
353.2 K, x1 = 0.01 | 964.2
353.2 K, x1 = 0.0159 | 963.2
353.2 K, x1 = 0.0224 | 956.8
353.2 K, x1 = 0.0297 | 948.7
353.2 K, x1 = 0.0401 | 935.3
353.2 K, x1 = 0.0549 | 916.8
353.2 K, x1 = 0.0696 | 895.8
